biological target: SARS2 protease (Severe acute respiratory syndrome coronavirus 2, UniProt P0DTD1); assay: SARS-CoV-2 protease inhibition assay (SARS2 FRET protease assay); assay type: biochemical; details: IC50 (μM)

SMILES	IC50
CC(C)C[C@H](NC(=O)OC1CCCC1Cc1ccccc1)C(=O)N[C@@H](C[C@@H]1CCNC1=O)C(=O)CCl (stereo partly drawn) [Compound C199, 2-Benzylcyclopentyl ((S)-1-(((S)-4-chloro-3-oxo-1-((S)-2-oxopyrrolidin-3-yl)butan-2-yl)amino)-4-methyl-1-oxopentan-2-yl)carbamate]	0.196 µM

same assay, conditions: SARS-CoV-2 protease 25 nM, FRET, peptide substrate 1.3 μM, 30 minutes at 30° C., compounds 20 μM to 1.0 nM; read-out: IC50

SMILES	IC50
O=C[C@H](CC1CC2(CCOCC2)NC1=O)NC(=O)[C@H](CC1CCCCC1)NC(=O)OCc1cccc(Cl)c1 (stereo partly drawn) [Compound C200, 3-Chlorobenzyl ((2S)-3-cyclohexyl-1-oxo-1-(((2S)-1-oxo-3-(2-oxo-8-oxa-1-azaspiro[4.5]decan-3-yl)propan-2-yl)amino)propan-2-yl)carbamate]	0.00065 µM
CC(C)C[C@H](NC(=O)OC(c1ccc(Cl)cc1)C1(c2cccc(Cl)c2)CC1)C(=O)N[C@@H](C[C@@H]1CCNC1=O)C(=O)C(=O)NC1CC1 (stereo partly drawn) [Compound C201, (4-Chlorophenyl)(1-(3-chlorophenyl)cyclopropyl) methyl ((S)-1-(((S)-4-(cyclopropylamino)-3,4-dioxo-1-((S)-2-oxopyrrolidin-3-yl)butan-2-yl)amino)-4-methyl-1-oxopentan-2-yl) carbamate]	0.0044 µM
CC(C)(C)C(=O)N1CCC2(CC1)CC(CC(C=O)NC(=O)[C@H](CC1CCCCC1)NC(=O)OC1CCCC1Cc1cccc(Cl)c1)C(=O)N2 (stereo partly drawn) [Compound C202, 2-(3-Chlorobenzyl) cyclopentyl ((2S)-3-cyclohexyl-1-oxo-1-((1-oxo-3-(2-oxo-8-pivaloyl-1,8-diazaspiro[4.5]decan-3-yl)propan-2-yl)amino)propan-2-yl)carbamate]	0.644 µM
CC(C)C[C@H](NC(=O)OC(c1cccc(Cl)c1)C1(c2cccc(Cl)c2)CC1)C(=O)N[C@H](C=O)C[C@@H]1CCNC1=O (stereo partly drawn) [Compound C203, (3-chlorophenyl)(1-(3-chlorophenyl)cyclopropyl)methyl ((S)-4-methyl-1-oxo-1-(((S)-1-oxo-3-((S)-2-oxopyrrolidin-3-yl)propan-2-yl)amino)pentan-2-yl)carbamate]	0.0105 µM
CC(C)C[C@H](NC(=O)OC1(Cc2cccc(Cl)c2)CCC1)C(=O)NC(C=O)CC1CC2(CCOCC2)NC1=O (stereo partly shown) [Compound C204]	0.224 µM
CC1(C)CC(CC(NC(=O)[C@H](CC2CCCCC2)NC(=O)OC(c2cccc(F)c2)C(C)(C)c2cccc(Cl)c2)C(=O)C(=O)NC2CC2)C(=O)N1 (stereo partly drawn) [Compound C205, 2-(3-Chlorophenyl)-1-(3-fluorophenyl)-2-methylpropyl ((2S)-3-cyclohexyl-1-((4-(cyclopropylamino)-1-(5,5-dimethyl-2-oxopyrrolidin-3-yl)-3,4-dioxobutan-2-yl)amino)-1-oxopropan-2-yl)carbamate]	2.56 µM
O=C(N[C@@H](CC1CCCCC1)C(=O)NC(CC1CC2(CCOCC2)NC1=O)C(=O)C(=O)NC1CC1)OC1CCCC1Cc1cccc(Cl)c1 (stereo partly drawn) [Compound C206, 2-(3-Chlorobenzyl)cyclopentyl ((2S)-3-cyclohexyl-1-((4-(cyclopropylamino)-3,4-dioxo-1-(2-oxo-8-oxa-1-azaspiro[4.5]decan-3-yl)butan-2-yl)amino)-1-oxopropan-2-yl)carbamate]	5.11 µM
CC(C)C[C@H](NC(=O)OC(c1ccccc1)C(C)(C)c1cccc(Cl)c1)C(=O)N[C@@H](C[C@@H]1CCNC1=O)C(=O)C(N)=O (stereo partly drawn) [Compound C207, 2-(3-Chlorophenyl)-2-methyl-1-phenylpropyl ((S)-1-(((S)-4-amino-3,4-dioxo-1-((S)-2-oxopyrrolidin-3-yl)butan-2-yl)amino)-4-methyl-1-oxopentan-2-yl)carbamate]	0.315 µM
CC(C)C[C@H](NC(=O)OC(c1ccccc1)C(C)(C)c1cccc(Cl)c1)C(=O)N[C@@H](C[C@@H]1CCNC1=O)C(=O)CCl (stereo partly drawn) [Compound C209, 2-(3-Chlorophenyl)-2-methyl-1-phenylpropyl ((S)-1-(((S)-4-chloro-3-oxo-1-((S)-2-oxopyrrolidin-3-yl)butan-2-yl)amino)-4-methyl-1-oxopentan-2-yl)carbamate]	1.87 µM
CC(C)(C)C(=O)N1CCC2(CC1)CC(CC(NC(=O)[C@H](CC1CCCCC1)NC(=O)OC1CCCC1Cc1cccc(Cl)c1)C(=O)C(=O)NC1CC1)C(=O)N2 (stereo partly drawn) [Compound C210, 2-(3-Chlorobenzyl) cyclopentyl ((2S)-3-cyclohexyl-1-((4-(cyclopropylamino)-3,4-dioxo-1-(2-oxo-8-pivaloyl-1,8-diazaspiro[4.5]decan-3-yl)butan-2-yl)amino)-1-oxopropan-2-yl) carbamate]	2.65 µM
CCNC(=O)C(=O)[C@H](C[C@@H]1CCNC1=O)NC(=O)[C@H](CC1CCCCC1)NC(=O)OC(c1ccccc1)C(C)(C)c1cccc(Cl)c1 (stereo partly drawn) [Compound C211, 2-(3-Chlorophenyl)-2-methyl-1-phenylpropyl ((S)-3-cyclohexyl-1-(((S)-4-(ethylamino)-3,4-dioxo-1-((S)-2-oxopyrrolidin-3-yl)butan-2-yl)amino)-1-oxopropan-2-yl) carbamate]	0.339 µM
CC(C)(C)C(=O)N1CCC2(CC1)CC(CC(C=O)NC(=O)[C@H](CC1CCCCC1)NC(=O)OCc1cccc(Cl)c1)C(=O)N2 (stereo partly drawn) [Compound C212, 3-Chlorobenzyl ((2S)-3-cyclohexyl-1-oxo-1-((1-oxo-3-(2-oxo-8-pivaloyl-1,8-diazaspiro[4.5]decan-3-yl)propan-2-yl)amino)propan-2-yl)carbamate]	0.194 µM
O=C(N[C@@H](CC1CCCCC1)C(=O)N[C@@H](C[C@@H]1CCNC1=O)C(=O)C(=O)NC1CC1)OC(c1cccc(Cl)c1)C1(c2cccc(Cl)c2)CC1 (stereo partly shown) [Compound C213]	0.257 µM
COc1cccc2[nH]c(C(=O)N[C@@H](CC(C)C)C(=O)NC(C=O)CC3CC4(CCCCC4)NC3=O)cc12 (stereo partly drawn) [Compound C214, 4-Methoxy-N-((2S)-4-methyl-1-oxo-1-((1-oxo-3-(2-oxo-1-azaspiro[4.5]decan-3-yl)propan-2-yl)amino)pentan-2-yl)-1H-indole-2-carboxamide]	0.011 µM
CC(C)C(OC(=O)N[C@@H](CC1CCCCC1)C(=O)N[C@@H](C[C@@H]1CCNC1=O)C(=O)C(N)=O)c1ccccc1 (stereo partly drawn) [Compound C216, 2-Methyl-1-phenylpropyl ((S)-1-(((S)-4-amino-3,4-dioxo-1-((S)-2-oxopyrrolidin-3-yl)butan-2-yl)amino)-3-cyclohexyl-1-oxopropan-2-yl)carbamate]	3.1 µM
CC1(C)CC(CC(NC(=O)[C@H](CC2CCCCC2)NC(=O)OC(Cc2cccc(Cl)c2)c2ccccc2)C(=O)C(N)=O)C(=O)N1 (stereo partly drawn) [Compound C217, 2-(3-Chlorophenyl)-1-phenylethyl ((2S)-1-((4-amino-1-(5,5-dimethyl-2-oxopyrrolidin-3-yl)-3,4-dioxobutan-2-yl)amino)-3-cyclohexyl-1-oxopropan-2-yl) carbamate]	3.99 µM
CC(C)C[C@H](NC(=O)OC(c1ccccc1)C(C)(C)c1cccc(Cl)c1)C(=O)NC(CC1CC(C)(C)NC1=O)C(=O)C(N)=O (stereo partly drawn) [Compound C218, 2-(3-Chlorophenyl)-2-methyl-1-phenylpropyl ((2S)-1-((4-amino-1-(5,5-dimethyl-2-oxopyrrolidin-3-yl)-3,4-dioxobutan-2-yl)amino)-4-methyl-1-oxopentan-2-yl)carbamate]	1.85 µM
CC1(C)CC(CC(NC(=O)[C@H](CC2CCCCC2)NC(=O)OC(c2cccc(F)c2)C(C)(C)c2cccc(Cl)c2)C(=O)C(N)=O)C(=O)N1 (stereo partly drawn) [Compound C220, 2-(3-Chlorophenyl)-1-(3-fluorophenyl)-2-methylpropyl ((2S)-1-((4-amino-1-(5,5-dimethyl-2-oxopyrrolidin-3-yl)-3,4-dioxobutan-2-yl)amino)-3-cyclohexyl-1-oxopropan-2-yl)carbamate]	1.83 µM
CC1(C)CC(CC(C=O)NC(=O)[C@H](CC2CCCCC2)NC(=O)OC(c2cccc(F)c2)C(C)(C)c2cccc(Cl)c2)C(=O)N1 (stereo partly drawn) [Compound C222, 2-(3-Chlorophenyl)-1-(3-fluorophenyl)-2-methylpropyl ((2S)-3-cyclohexyl-1-((1-(5,5-dimethyl-2-oxopyrrolidin-3-yl)-3-oxopropan-2-yl)amino)-1-oxopropan-2-yl)carbamate]	0.235 µM
O=CC(CC1CC2(CCCCC2)NC1=O)NC(=O)[C@H](CC1CCCCC1)NC(=O)OC1CCCC1Cc1cccc(Cl)c1 (stereo partly drawn) [Compound C223, 2-(3-Chlorobenzyl)cyclopentyl ((2S)-3-cyclohexyl-1-oxo-1-((1-oxo-3-(2-oxo-1-azaspiro[4.5]decan-3-yl)propan-2-yl)amino)propan-2-yl)carbamate]	0.781 µM
O=C[C@H](C[C@@H]1CCNC1=O)NC(=O)[C@H](CC1CCCCC1)NC(=O)O[C@H]1CCC[C@H]1Cc1cccc(Cl)c1 [Compound C224, (1S,2S)-2-(3-Chlorobenzyl) cyclopentyl ((S)-3-cyclohexyl-1-oxo-1-(((S)-1-oxo-3-((S)-2-oxopyrrolidin-3-yl)propan-2-yl)amino)propan-2-yl) carbamate]	0.183 µM
O=CC(CC1CC2(CCOCC2)NC1=O)NC(=O)[C@H](CC1CCCCC1)NC(=O)OC1CCCC1Cc1cccc(Cl)c1 (stereo partly drawn) [Compound C225, 2-(3-chlorobenzyl)cyclopentyl ((2S)-3-cyclohexyl-1-oxo-1-((1-oxo-3-(2-oxo-8-oxa-1-azaspiro[4.5]decan-3-yl)propan-2-yl)amino)propan-2-yl)carbamate]	1.01 µM
CC(C)C[C@H](NC(=O)OC(c1ccc(Cl)cc1)C(C)(C)c1cccc(Cl)c1)C(=O)N[C@@H](C[C@@H]1CCNC1=O)C(=O)C(=O)NC1CC1 (stereo partly drawn) [Compound C226, 2-(3-chlorophenyl)-1-(4-chlorophenyl)-2-methylpropyl ((S)-1-(((S)-4-(cyclopropylamino)-3,4-dioxo-1-((S)-2-oxopyrrolidin-3-yl)butan-2-yl)amino)-4-methyl-1-oxopentan-2-yl)carbamate]	0.057 µM
COc1cccc2[nH]c(C(=O)N[C@@H](CC(C)C)C(=O)NC(CC3CC4(CCCCC4)NC3=O)C(=O)CCl)cc12 (stereo partly drawn) [Compound C227, N-((2S)-1-((4-chloro-3-oxo-1-(2-oxo-1-azaspiro[4.5]decan-3-yl)butan-2-yl)amino)-4-methyl-1-oxopentan-2-yl)-4-methoxy-1H-indole-2-carboxamide]	0.059 µM
